# Tests used:
# [1] = target: Ba/F3 KRASG12C cells (Homo sapiens, UniProt P01116, G12C, cells depend on it); assay: Ba/F3 cell model proliferation assay (AlamarBlue, 72 h); type: cell-based; settings: without IL-3, read-out: IC50 Ba/F3 KRASG12C
# Description: Plasmids containing KRASG12 mutants were obtained from GeneScript. […] Retrovirus was added to Ba/F3 cells. To ensure infection, 4 μg/mL polybrene was added and cells were spinfected. […] As a control, parental Ba/F3 cells were used to show selection status. Selection was considered successful when parental Ba/F3 cells cultures died. […] Ba/F3 cells harboring the empty vector were used as a control. Approximately ten days before conducting the experiments, puromycin was left out.
# Compounds were added using an Access Labcyte Workstation with a Labcyte Echo 550 or 555 acoustic dispenser. All treatments were performed in technical duplicates. The assay is run using a fully automated robotic system. […] AlamarBlue™ (ThermoFisher), a viability stain, was added and fluorescence measured in the PerkinElmer Envision HTS Multilabel Reader. The raw data were imported into and analyzed with the Boehringer Ingelheim proprietary software MegaLab (curve fitting based on the program PRISM, GraphPad Inc.).
# [2] = test system: NCI-H358 cells (NSCLC, G12C); assay: NCI-H358 CTG proliferation assay (120 h); type: cell-based; settings: Homo sapiens, NCI-H358, CellTiter-Glo
# Description: NCI-H358 cells (ATCC No. CRL-5807) are dispensed into white bottom opaque 96 well plates (Perkin Elmer cat no. 5680) at a density of 2000 cells per well in 100 μL RPMI-1640 ATCC-Formulation (Gibco #A10491)+10% FCS (fetal calf serum). […] Compounds (10 mM stock in DMSO) are added at logarithmic dose series using the HP Digital Dispenser D300 (Tecan), normalizing for added DMSO and including DMSO controls. For the TO time point measurement, untreated cells are analyzed at the time of compound addition. Plates are incubated for 120 h, and cell viability is measured using CellTiter-Glo luminescent cell viability reagent (Promega product code G7570). Viability (stated as percent of control) is defined as relative luminescence units RLU of each well divided by the RLU of cells in DMSO controls. IC50 values are determined from viability measurements by non-linear regression using a four parameter model.
# IC50 values of representative compounds according to the invention measured with these assays in the indicated cell lines: […]
# [3] = Metabolic (microsomal) stability assay; type: in vitro ADME; settings: human liver microsomes 1 mg/mL, 1 μM compound, 37° C.; predicted clearance as percent of liver blood flow
# Description: The metabolic degradation of the test compound is assayed at 37° C. with pooled liver microsomes (mouse (MLM), rat (RLM) or human (HLM)). The final incubation volume of 48 μL per time point contains TRIS buffer (pH 7.5; 0.1 M), magnesium chloride (6.5 mM), microsomal protein (0.5 mg/mL for mouse/rat, 1 mg/mL for human specimens) and the test compound at a final concentration of 1 μM. Following a short preincubation period at 37° C., the reactions are initiated by addition of 12 μL beta-nicotinamide adenine dinucleotide phosphate, reduced form (NADPH, 10 mM) and terminated by transferring an aliquot into solvent after different time points (0, 5, 15, 30, 60 min). Additionally, the NADPH-independent degradation is monitored in incubations without NADPH, terminated at the last time point by addition of acetonitrile. The quenched incubations are pelleted by centrifugation (4,000 rpm, 15 min). An aliquot of the supernatant is assayed by LC-MS/MS to quantify the concentration of parent compound in the individual samples.
# In vitro intrinsic clearance (CLint, in vitro) is calculated from the time course of the disappearance of the test drug during the microsomal incubation. Each plot is fitted to the first-order elimination rate constant as C(t)=C0*exp(−ke*t), where C(t) and C0 are the concentration of unchanged test drug at incubation time t and that at preincubation and ke is the disappearance rate constant of the unchanged drug. Subsequently, CLint, in vitro (μL min^−1·amount protein) values are converted to predicted CLint,in vivo (mL min^−1·kg^−1) from incubation parameters according to the equation CLint, in vivo=CLint, in vitro×(incubation volume (ml)/amount protein (mg))×(amount protein (mg)/g liver tissue)×(liver weight/body wt.).
# For better across species comparison the predicted clearance is expressed as percent of the liver blood flow [% QH](mL min^−1 kg^−1) in the individual species. In general, high stability (corresponding to low % QH) of the compounds across species is desired.
# Metabolic stability data obtained with the disclosed assay in HLM for a selection of compounds (I) according to the invention: […]
# Ba/F3 KRASG12C cells, sequence (P01116 whole entry G12C): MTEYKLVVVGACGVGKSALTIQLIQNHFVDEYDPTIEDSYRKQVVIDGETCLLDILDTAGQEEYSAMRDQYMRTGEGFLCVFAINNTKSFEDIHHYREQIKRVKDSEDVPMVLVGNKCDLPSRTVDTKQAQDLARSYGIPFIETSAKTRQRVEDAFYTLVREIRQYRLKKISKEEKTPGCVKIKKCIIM
SMILES,GI50 [1] [nM],IC50 [2] [nM],HLM QH [3] [%]
C=C(F)C(=O)N1[C@@H](C)CN(c2cc(-c3onc4c3CCC[C@@]43CCCc4sc(N)c(C#N)c43)nc(O[C@@H](C)[C@@H]3CCCN3C)n2)C[C@@H]1C [Ia-3],3.7,7,41
C=CC(=O)N1[C@@H](C)CN(c2cc(-c3onc4c3CCC[C@@]43CCCc4sc(N)c(C#N)c43)nc(O[C@@H](C)[C@@H]3CCCN3C)n2)C[C@@H]1C [Ia-4],0.1,< 1,28
C[C@H](Oc1cc(N2C[C@H](C)N(C(=O)/C=C/CF)[C@@H](C)C2)nc(-c2noc3c2CCC[C@@]32CCCc3sc(N)c(C#N)c32)n1)[C@@H]1CCCN1C [Ib-1],0.5,1,<24
C=CC(=O)N1CCN(c2cc(O[C@@H](C)[C@@H]3CCCN3C)nc(-c3noc4c3CCC[C@@]43CCCc4sc(N)c(C#N)c43)n2)CC12CC2 [Ib-2],0.3,1,<24
C=CC(=O)N1[C@@H](C)CN(c2cc(O[C@@H](C)[C@@H]3CCCN3C)nc(-c3noc4c3CCC[C@@]43CCCc4sc(N)c(C#N)c43)n2)C[C@@H]1C [Ib-3],0.2,< 1,34
C=C(F)C(=O)N1[C@@H](C)CN(c2cc(O[C@@H](C)[C@@H]3CCCN3C)nc(-c3noc4c3CCC[C@@]43CCCc4sc(N)c(C#N)c43)n2)C[C@@H]1C [Ib-5],0.5,1,<24
C=C(F)C(=O)N1[C@@H](C)CN(c2cc(-c3noc4c3CCC[C@@]43CCCc4sc(N)c(C#N)c43)nc(O[C@@H](C)[C@@H]3CCCN3C)n2)C[C@@H]1C [Ib-6],1.6,2,72
C[C@H](Oc1nc(-c2noc3c2CCC[C@@]32CCCc3sc(N)c(C#N)c32)cc(N2C[C@H](C)N(C(=O)/C=C/CF)[C@@H](C)C2)n1)[C@@H]1CCCN1C [Ib-7],1.6,4,64
COC/C=C/C(=O)N1[C@@H](C)CN(c2cc(-c3noc4c3CCC[C@@]43CCCc4sc(N)c(C#N)c43)nc(O[C@@H](C)[C@@H]3CCCN3C)n2)C[C@@H]1C [Ib-9],15.1,90,76

# Further compounds by falling GI50 [1], results first:
GI50 [1] [nM],IC50 [2] [nM],HLM QH [3] [%],SMILES
25.1,85,49,C[C@H](Oc1nc(-c2noc3c2CCC[C@@]32CCCc3sc(N)c(C#N)c32)cc(N2C[C@H](C)N(C(=O)/C=C/c3cccnc3)[C@@H](C)C2)n1)[C@@H]1CCCN1C [Ib-8]
0.8,1,<24,C=C(F)C(=O)N1[C@@H](C)CN(c2cc(O[C@@H](C)[C@@H]3CCCN3C)nc(-c3onc4c3CCC[C@@]43CCCc4sc(N)c(C#N)c43)n2)C[C@@H]1C [Ia-1]
0.1,< 1,<24,C=CC(=O)N1[C@@H](C)CN(c2cc(O[C@@H](C)[C@@H]3CCCN3C)nc(-c3onc4c3CCC[C@@]43CCCc4sc(N)c(C#N)c43)n2)C[C@@H]1C [Ia-2]
0.1,< 1,45,C=CC(=O)N1[C@@H](C)CN(c2cc(-c3noc4c3CCC[C@@]43CCCc4sc(N)c(C#N)c43)nc(O[C@@H](C)[C@@H]3CCCN3C)n2)C[C@@H]1C [Ib-4]

# — patent US20250296940A1, “ANNULATED 2-AMINO-3-CYANO THIOPHENES AND DERIVATIVES FOR THE TREATMENT OF CANCER” (Boehringer Ingelheim Int'l GmbH Corp., priority 2021, published 2025)
